Target: CDK7/CycH/MNAT1 (Homo sapiens (Human), UniProt P50613)
Test: Biochemical Assay for CDK7 (TR-FRET kinase assay)
Details: 60 min pre-incubation with kinase, 1 mM ATP; for inhibition at 10 µM: 10 μM compound
Experimental: Biochemical Assay for CDK7:
The ability of compounds to inhibit CDK7 kinase activity was tested in a TR-FRET assay using 5 nM of CDK7/CycH/MNAT1 obtained from Invitrogen, USA. Test compounds were pre-incubated with the kinase at room temperature for 60 min. After the incubation, substrate mix [100 nM Ultra-light MBP (Perkin Elmer, USA) and 1 mM ATP (Sigma)] was added. The above reaction was stopped by the addition of 40 mM EDTA after 60 minutes of kinase reaction. 1 nM Eu-labelled antiphospho-MBP antibody [Perkin Elmer, USA] was added, mixed well and the fluorescence emission at 615 nm and 665 nm [excitation at 340 nm] was measured. The final DMSO concentration in the assay was 1%. For IC50 determination, appropriate concentrations were made by ⅓^rd serial dilutions of 10 mM DMSO stock solution of test compound. All the fluorescence measurements were made in a Victor 3 Multilabel Counter [Perkin Elmer, USA]. The IC50 was determined by fitting the dose response data to sigmoidal curve fitting equation using GraphPad Prism software V5. To identify compounds that inhibit CDK7 irreversibly, time depended inhibition studies were carried by pre-incubating compound with the enzyme at three time points (20, 60 and 180 min) and carrying out assay as described above.
The compounds were screened by the above mentioned assay procedure.

Chain of CDK7/CycH/MNAT1 (P50613 whole entry): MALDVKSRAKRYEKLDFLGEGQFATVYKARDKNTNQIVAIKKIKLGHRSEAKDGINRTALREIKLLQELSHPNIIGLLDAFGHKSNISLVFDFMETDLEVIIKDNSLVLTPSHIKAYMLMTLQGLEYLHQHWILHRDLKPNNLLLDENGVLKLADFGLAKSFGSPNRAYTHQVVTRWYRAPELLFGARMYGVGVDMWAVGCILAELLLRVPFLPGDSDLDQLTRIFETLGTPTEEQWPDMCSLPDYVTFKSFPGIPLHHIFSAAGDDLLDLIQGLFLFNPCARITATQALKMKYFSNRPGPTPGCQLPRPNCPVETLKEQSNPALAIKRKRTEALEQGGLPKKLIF
Chain of CDK7/CycH/MNAT1 (P51946 whole entry partner): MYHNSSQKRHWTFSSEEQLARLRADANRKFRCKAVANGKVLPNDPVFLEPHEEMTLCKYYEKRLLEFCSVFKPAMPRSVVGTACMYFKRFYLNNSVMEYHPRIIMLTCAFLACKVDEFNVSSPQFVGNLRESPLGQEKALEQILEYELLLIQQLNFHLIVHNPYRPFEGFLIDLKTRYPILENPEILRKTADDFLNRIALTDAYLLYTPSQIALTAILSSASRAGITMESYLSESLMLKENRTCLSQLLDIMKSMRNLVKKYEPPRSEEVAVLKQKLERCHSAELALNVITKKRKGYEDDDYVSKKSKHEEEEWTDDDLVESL
Chain of CDK7/CycH/MNAT1 (P51948 whole entry partner): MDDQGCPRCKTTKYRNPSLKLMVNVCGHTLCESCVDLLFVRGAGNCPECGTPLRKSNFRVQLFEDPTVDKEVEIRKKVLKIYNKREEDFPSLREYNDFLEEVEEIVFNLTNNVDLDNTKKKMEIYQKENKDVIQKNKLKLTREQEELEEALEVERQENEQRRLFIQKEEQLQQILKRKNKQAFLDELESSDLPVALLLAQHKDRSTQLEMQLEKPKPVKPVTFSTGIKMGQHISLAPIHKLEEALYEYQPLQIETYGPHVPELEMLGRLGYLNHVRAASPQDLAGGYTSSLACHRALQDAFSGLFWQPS

SMILES | inhibition at 10 µM [%] | IC50 [nM]
CC(C(=O)Nc1cc(C2CC2)[nH]n1)c1cccc(-c2ccc(NC(=O)/C=C/CN3CC[C@H](F)C3)nc2)c1 (stereo partly drawn) [Compound 46, (E)-N-(5-(3-(1-((5-cyclopropyl-1H-pyrazol-3-yl)amino)-1-oxopropan-2-yl)phenyl)pyridin-2-yl)-4-((S)-3-fluoropyrrolidin-1-yl)but-2-enamide] | 95 | < 25
CC(C(=O)Nc1cc(C2CC2)[nH]n1)c1cccc(-c2ccc(NC(=O)/C=C/CN3CC[C@@H](F)C3)nc2)c1 (stereo partly drawn) [Compound 49, (E)-N-(5-(3-(1-((5-cyclopropyl-1H-pyrazol-3-yl)amino)-1-oxopropan-2-yl)phenyl)pyridin-2-yl)-4-((R)-3-fluoropyrrolidin-1-yl)but-2-enamide] | 89 | < 25
CC(C(=O)Nc1cc(C2CC2)[nH]n1)c1cccc(-c2ccc(NC(=O)/C=C/CN3CCCC3)nc2)c1 (centres unmarked) [Compound 52, (E)-N-(5-(3-(1-((5-cyclopropyl-1H-pyrazol-3-yl)amino)-1-oxopropan-2-yl)phenyl)pyridin-2-yl)-4-(pyrrolidin-1-yl)but-2-enamide] | 91 | < 25
CCN(CC)C/C=C/C(=O)Nc1ccc(-c2cccc(C(C)C(=O)Nc3cc(C4CC4)[nH]n3)c2)cn1 (centres unmarked) [Compound 55, (E)-N-(5-(3-(1-((5-cyclopropyl-1H-pyrazol-3-yl)amino)-1-oxopropan-2-yl)phenyl)pyridin-2-yl)-4-(diethylamino)but-2-enamide] | 95 | < 25
CC(C)C(C(=O)Nc1cc(C2CC2)[nH]n1)c1cccc(-c2ccc(NC(=O)/C=C/CN(C)C)nc2)c1 (centres unmarked) [Compound 56, (E)-N-(5-(3-(1-((5-cyclopropyl-1H-pyrazol-3-yl)amino)-3-methyl-1-oxobutan-2-yl)phenyl)pyridin-2-yl)-4-(dimethylamino)but-2-enamide] | 96 | < 25
CC(C(=O)Nc1cc(C2CC2)[nH]n1)c1cccc(-c2ccc(NC(=O)/C=C/CN3CCCC(F)C3)nc2)c1 (centres unmarked) [Compound 57, (E)-N-(5-(3-(1-((5-cyclopropyl-1H-pyrazol-3-yl)amino)-1-oxopropan-2-yl)phenyl)pyridin-2-yl)-4-(3-fluoropiperidin-1-yl)but-2-enamide] | 98 | < 25
CC(C(=O)Nc1cc(C2CC2)[nH]n1)c1cccc(-c2ccc(NC(=O)/C=C/CN3CCOCC3)c(F)n2)c1 (centres unmarked) [Compound 58, (E)-N-(6-(3-(1-((5-cyclopropyl-1H-pyrazol-3-yl)amino)-1-oxopropan-2-yl)phenyl)-2-fluoropyridin-3-yl)-4-morpholinobut-2-enamide] | 90 | > 100
CC(C(=O)Nc1cc(C2CC2)[nH]n1)c1cccc(-c2ccc(NC(=O)/C=C/CN3CCOCC3)nc2F)c1 (centres unmarked) [Compound 59, (E)-N-(5-(3-(1-((5-cyclopropyl-1H-pyrazol-3-yl)amino)-1-oxopropan-2-yl)phenyl)-6-fluoropyridin-2-yl)-4-morpholinobut-2-enamide] | 99 | 25 to 100
CC(C(=O)Nc1cc(C2CC2)[nH]n1)c1cccc(-c2cncc(NC(=O)/C=C/CN3CCOCC3)c2)c1 (centres unmarked) [Compound 60, (E)-N-(5-(3-(1-((5-cyclopropyl-1H-pyrazol-3-yl)amino)-1-oxopropan-2-yl)phenyl)pyridin-3-yl)-4-morpholinobut-2-enamide] | 99 | 25 to 100
CC(C(=O)Nc1cc(C2CC2)[nH]n1)c1cccc(-c2cccc(NC(=O)/C=C/CN3CCOCC3)c2)c1 (centres unmarked) [Compound 61, (E)-N-(3′-(1-((5-cyclopropyl-1H-pyrazol-3-yl)amino)-1-oxopropan-2-yl)-[1,1′-biphenyl]-3-yl)-4-morpholinobut-2-enamide] | 92 | > 100
CON(C)C/C=C/C(=O)Nc1ccc(-c2cccc(C(C)C(=O)Nc3cc(C4CC4)[nH]n3)c2)cn1 (centres unmarked) [Compound 62, (E)-N-(5-(3-(1-((5-cyclopropyl-1H-pyrazol-3-yl)amino)-1-oxopropan-2-yl)phenyl)pyridin-2-yl)-4-(methoxy(methyl)amino)but-2-enamide] | 81 | > 100
CC(C(=O)Nc1cc(C2CC2)[nH]n1)c1cccc(-c2cnc(NC(=O)/C=C/CN3CCOCC3)c(F)c2)c1 (centres unmarked) [Compound 63, (E)-N-(5-(3-(1-((5-cyclopropyl-1H-pyrazol-3-yl)amino)-1-oxopropan-2-yl)phenyl)-3-fluoropyridin-2-yl)-4-morpholinobut-2-enamide] | 98 | 25 to 100
CC(C(=O)Nc1cc(C2CC2)[nH]n1)c1cccc(-c2ccc(NC(=O)/C=C/CN3CCC(F)C3)c(F)n2)c1 (centres unmarked) [Compound 64, (E)-N-(6-(3-(1-((5-cyclopropyl-1H-pyrazol-3-yl)amino)-1-oxopropan-2-yl)phenyl)-2-fluoropyridin-3-yl)-4-(3-fluoropyrrolidin-1-yl)but-2-enamide] | 94 | 25 to 100
C=CC(=O)Nc1ccc(-c2cccc(C(C)C(=O)Nc3cc(C4CC4)[nH]n3)c2)cc1OC (centres unmarked) [Compound 65, N-(3′-(1-((5-cyclopropyl-1H-pyrazol-3-yl)amino)-1-oxopropan-2-yl)-3-methoxy-[1,1′-biphenyl]-4-yl)acrylamide] | 94 | > 100
C=CC(=O)Nc1ccc(-c2cccc(C(C)C(=O)Nc3cc(C4CC4)[nH]n3)c2)cc1C (centres unmarked) [Compound 66, N-(3′-(1-((5-cyclopropyl-1H-pyrazol-3-yl)amino)-1-oxopropan-2-yl)-3-methyl-[1,1′-biphenyl]-4-yl)acrylamide] | 88 | > 100
C=CC(=O)Nc1c(C)cc(-c2cccc(C(C)C(=O)Nc3cc(C4CC4)[nH]n3)c2)cc1C (centres unmarked) [Compound 67, N-(3′-(1-((5-cyclopropyl-1H-pyrazol-3-yl)amino)-1-oxopropan-2-yl)-3,5-dimethyl-[1,1′-biphenyl]-4-yl)acrylamide] | 79 | > 100
COCCN(C)C/C=C/C(=O)Nc1ccc(-c2cccc(C(C)C(=O)Nc3cc(C4CC4)[nH]n3)c2)cn1 (centres unmarked) [Compound 68, (E)-N-(5-(3-(1-((5-cyclopropyl-1H-pyrazol-3-yl)amino)-1-oxopropan-2-yl)phenyl)pyridin-2-yl)-4-((2-methoxyethyl)(methyl)amino)but-2-enamide] | 95 | < 25
CC(C(=O)Nc1cc(C2CC2)[nH]n1)c1cccc(-c2ccc(NC(=O)/C=C/Cn3ccnc3)nc2)c1 (centres unmarked) [Compound 69, (E)-N-(5-(3-(1-((5-cyclopropyl-1H-pyrazol-3-yl)amino)-1-oxopropan-2-yl)phenyl)pyridin-2-yl)-4-(1H-imidazol-1-yl)but-2-enamide] | 87 | 25 to 100
COC[C@@H]1CCCN1C/C=C/C(=O)Nc1ccc(-c2cccc(C(C)C(=O)Nc3cc(C4CC4)[nH]n3)c2)cn1 (stereo partly drawn) [Compound 70, (E)-N-(5-(3-(1-((5-cyclopropyl-1H-pyrazol-3-yl)amino)-1-oxopropan-2-yl)phenyl)pyridin-2-yl)-4-((S)-2-(methoxymethyl)pyrrolidin-1-yl)but-2-enamide] | 81 | 25 to 100
C=CC(=O)Nc1ccc(-c2cccc(C(C)C(=O)Nc3cc(C4CC4)[nH]n3)c2)c(OC)c1 (centres unmarked) [Compound 73, N-(3′-(1-((5-cyclopropyl-1H-pyrazol-3-yl)amino)-1-oxopropan-2-yl)-2-methoxy-[1,1′-biphenyl]-4-yl)acrylamide] | 91 | > 100
C=CC(=O)NCc1ccc(-c2cccc(C(C)C(=O)Nc3cc(C4CC4)[nH]n3)c2)cn1 (centres unmarked) [Compound 74, N-((5-(3-(1-((5-cyclopropyl-1H-pyrazol-3-yl)amino)-1-oxopropan-2-yl)phenyl)pyridin-2-yl)methyl)acrylamide] | 79 | > 100
C=CC(=O)Nc1ccc(-c2cccc(C(C)C(=O)Nc3cc(C4CC4)[nH]n3)c2)c(C)c1 (centres unmarked) [Compound 75, N-(3′-(1-((5-cyclopropyl-1H-pyrazol-3-yl)amino)-1-oxopropan-2-yl)-2-methyl-[1,1′-biphenyl]-4-yl)acrylamide] | 78 | > 100
C=CC(=O)N1CCc2cc(-c3cccc(C(C)C(=O)Nc4cc(C5CC5)[nH]n4)c3)ccc21 (centres unmarked) [Compound 76, 2-(3-(1-acryloylindolin-5-yl)phenyl)-N-(5-cyclopropyl-1H-pyrazol-3-yl)propanamide] | 98 | < 25
COC[C@@H]1C[C@H](F)CN1C/C=C/C(=O)Nc1ccc(-c2cccc(C(C)C(=O)Nc3cc(C4CC4)[nH]n3)c2)cn1 (stereo partly drawn) [Compound 77, (E)-N-(5-(3-(1-((5-cyclopropyl-1H-pyrazol-3-yl)amino)-1-oxopropan-2-yl)phenyl)pyridin-2-yl)-4-((2S,4S)-4-fluoro-2-(methoxymethyl)pyrrolidin-1-yl)but-2-enamide] | 98 | 25 to 100
CC(C(=O)Nc1cc(C2CC2)[nH]n1)c1cccc(-c2ccc(NC(=O)/C=C/CN3CCC(C#N)C3)nc2)c1 (centres unmarked) [Compound 78, (E)-4-(3-cyanopyrrolidin-1-yl)-N-(5-(3-(1-((5-cyclopropyl-1H-pyrazol-3-yl)amino)-1-oxopropan-2-yl)phenyl)pyridin-2-yl)but-2-enamide] | 100 | 25 to 100

Source: patent publication US11174232B2, “Substituted heterocyclyl derivatives as CDK inhibitors” (Aurigene Discovery Technologies Limited, priority 2015, dated 2021)
